One assay deals with PQS. As to the kind of experiment: PQS Inhibition Assay (24 Hour Incubation). In kind it is cell-based, P. aeruginosa PA14 wild-type strain. As to the method:
Test compounds are dissolved in DMSO at 10 mM and stored at −20° C. until needed. Seven test concentrations from 0.0032 micromolar to 31.6 micromolar are used for each compound. P. aeruginosa PA14 wild-type strain is inoculated into 5 mL LB broth in a 15-mL sterile glass culture tube and incubated overnight at 37° C. under shaking (˜240 rpm). The overnight culture is then diluted in LB Broth to give an OD600=0.04 (T0 culture). Colony Forming Units (CFU)/mL of the overnight culture and T0 culture are determined by a series of 1:10 serial dilutions in sterile saline. 4×20 μL of each dilution is seeded on LB agar plates and incubated at 35±2° C. for 20 hours. CFU/mL is determined from the dilution that gives 2 to 50 colonies/20 μL.
For concentration response curve (CRC) experiments, internal standard (2-((5-nitro-1H-indol-2-yl)thio)-N-(4-phenoxyphenyl)acetamide)) and test compounds are serially diluted in DMSO to give 200 times of each final concentration (0.5% DMSO final), and 1 μL/well is dispensed in duplicate into 2-mL wells of a 96 well deep well plate. 200 μL/well of T0 culture is added to each internal standard/test compound well used to determine PQS control level. Wells containing only LB broth (blank wells) are also included in the plate.
The plate is sealed and incubated at 37° C. for 24 hours under shaking (˜700 rpm) using a microtiter shaker. At the end of the incubation period, 150 μL/well of the deep well plate culture are transferred in a new non-sterile plate, and 150 μL/well of methanol containing tetra-deuterated PQS (D4-PQS) and 2% acetic acid are added to each well. The plate is sealed, shaken at high speed for 5 minutes and centrifuged at 4,000 g for 40 minutes at room temperature. 100 μL/well of the supernatant is then transferred to glass vials (vials crimp 0.2 mL) and kept at 4° C. until LC-MS/MS analysis.
PQSs quantification is carried out by analyzing samples in discrete batches together with spiked standards and blank samples.
Calibration curves are constructed from PQS standards, and respective deuterated PQS is used as an Internal Standards (IS) to calculate the concentration of analytes in the sample and improve the precision of the assay. The back-calculated concentrations of the calibration standards from the calibration curve shall be within ±20% of the nominal values, the range of the analytical method is determined, and the lower and upper limit of quantification specified.
Liquid chromatography separations are performed using an Agilent HP1100 system (Agilent Technologies) coupled with a CTC PAL Autosampler (CTC Analytics AG). Chromatographic retention is obtained using a monolithic column (Chromolith® RP-18, 50×4.6 mm). The solvent system consists of water containing 0.1% (v/v) formic acid (A) and acetonitrile containing 0.1% (v/v) formic acid (B). The gradient elution profile is chosen as follows: 0 min: 70% A (1500 μL/min), 0.3 min: 70% A (1500 μL/min), 1.3 min: 5% A (2500 μL/min), 1.6 min: 5% A (2500 μL/min).
The MS/MS analysis is performed with an API4000 series mass spectrometer (AB Sciex™) operating in Multiple Reaction Monitoring (MRM) mode and equipped with a TIS ion source. The specific ions monitored are PQS (m/z 260→m/z 175) and D4-PQS (m/z 264→m/z 179). The computer systems used in this study to acquire and quantify data may be an Analyst™ v1.5.
PQS in the presence of different concentrations of test compound are expressed as percentage of inhibition of the basal level in control samples. Curve fitting and IC50 estimations are carried out using a four parameter logistic model using GraphPad Prism v.5 program.

A further assay concerns Pyocyanin. Briefly: Pyocyanin Inhibition Assay. It counts as cell-based, P. aeruginosa, strain PA14. Summed up: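 P. aeruginosa PA14 at OD600=0.04 in LB grown 24 h at 37° C with shaking alongside compound (0.0032-31.6 micromolar, seven points, 0.5% DMSO final). Pyocyanin in supernatant quantified from A690 (ε 4,310 M^−1 cm^−1); % inhibition versus untreated culture, IC50 by four-parameter logistic fit.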

Where [1] appears, read: Pseudomonas aeruginosa, PA14, 24 h, read-out: PQS (24 hr) IC50 (μM).
Where [2] appears, read: Pseudomonas aeruginosa, PA14, 24 h, read-out: Pyocyanin Inhibition No. IC50 (μM).

Where two headings read alike, the source gives them in different places.

These results are taken from patent US9643933B2, “Compounds useful as antibiotic tolerance inhibitors” (priority 2013, dated 2017).

As a reminder, the IC50 is the concentration that gives 50% inhibition.

Turning to “2-((5-chloro-1H-benzo[d]imidazol-2-yl)thio)-N-(4-(pyrimidin-5-yloxy)phenyl)acetamide [Compound 79]”, the IC50 in the assay with PQS (P. aeruginosa PA14 culture, 24 hours incubation, PQS by LC-MS/MS, read-out: PQS (24 hr) IC50) is less than 1 µM; in the assay on Pyocyanin (P. aeruginosa PA14 culture, 24 hours at 37° C., pyocyanin in supernatant by absorbance at 690 nm, read-out: Pyocyanin Inhibition No. IC50), less than 0.1 µM.

Take `N#Cc1ccc(NC(=O)CSc2nc3cc(C(F)(F)F)ccc3[nH]2)cc1` [Compound 56]: the concentration for half-maximal inhibition (IC50) in the assay with PQS (setting [1]) is less than 1 µM; in the assay on Pyocyanin (setting [2]), less than 0.1 µM.

With `N#Cc1ccc(NC(=O)CSc2nc3cc(F)ccc3[nH]2)cc1` [Compound 57], the IC50 lay in the range of 1 to 5 µM with PQS (setting [1]) and 0.1 to 1 µM in the assay on Pyocyanin (setting [2]).

On to `O=C(CNc1nc2cc(Cl)ccc2s1)Nc1ccc(Oc2cccnc2)cc1` [Compound 71, 2-((5-chlorobenzo[d]thiazol-2-yl)amino)-N-(4-(pyridin-3-yloxy)phenyl)acetamide], for which the IC50 fell in the range of 5 to 10 µM in the assay on PQS (setting [1]) and 0.1 to 1 µM with Pyocyanin (setting [2]).

Consider `O=C(CNc1nc2cc(Cl)ccc2o1)Nc1ccc(Oc2cccnc2)cc1` [Compound 74, 2-((5-chlorobenzo[d]oxazol-2-yl)amino)-N-(4-(pyridin-3-yloxy)phenyl)acetamide], for which the IC50 lay in the range of 1 to 5 µM in the assay with PQS (setting [1]) and 0.1 to 1 µM in the assay with Pyocyanin (setting [2]).

In the case of `O=C(CSc1nc2cc(Cl)ccc2[nH]1)Nc1ccc(Oc2cccnc2)cc1` [Compound 77, 2-((5-chloro-1H-benzo[d]imidazol-2-yl)thio)-N-(4-(pyridin-3-yloxy)phenyl)acetamide], the half-inhibitory concentration (IC50) in the assay on PQS (setting [1]) was less than 1 µM; in the assay on Pyocyanin (setting [2]), less than 0.1 µM.

On to `O=C(CSc1nc2cc(Cl)ccc2[nH]1)Nc1ccc(Oc2cccnc2Cl)cc1` [Compound 83, 2-((5-chloro-1H-benzo[d]imidazol-2-yl)thio)-N-(4-((2-chloropyridin-3-yl)oxy)phenyl)acetamide], for which the IC50 in the assay on PQS (setting [1]) is less than 1 µM; with Pyocyanin (setting [2]), less than 0.1 µM.

Consider `O=C(CSc1nc2cc(Cl)ccc2[nH]1)Nc1ccc(Oc2ccc(Cl)nc2)cc1` [Compound 84, 2-((5-chloro-1H-benzo[d]imidazol-2-yl)thio)-N-(4-((6-chloropyridin-3-yl)oxy)phenyl)acetamide], for which the IC50 in the assay with PQS (setting [1]) is 1 to 5 µM; in the assay with Pyocyanin (setting [2]), less than 0.1 µM.

`O=C(CCc1nc2cc(Cl)ccc2s1)Nc1ccc(Oc2cccnc2)cc1` [Compound 85, 3-(5-chlorobenzo[d]thiazol-2-yl)-N-(4-(pyridin-3-yloxy)phenyl)propanamide]: the half-inhibitory concentration (IC50) in the assay on PQS (setting [1]) was greater than 10 µM; with Pyocyanin (setting [2]) it was 0.1 to 1 µM.

For `O=C(CCc1nc2ccc(Cl)cc2s1)Nc1ccc(Oc2cccnc2)cc1` [Compound 86, 3-(6-Chlorobenzo[d]thiazol-2-yl)-N-(4-(pyridin-3-yloxy)phenyl)propanamide], the figures for the IC50 in the assay with PQS (setting [1]) and in the assay with Pyocyanin (setting [2]) were greater than 10 µM and 0.1 to 1 µM, respectively.

Turning to `N#Cc1ccc(NC(=O)CSc2nc3ccc(C#N)cc3[nH]2)cc1` [Compound 93], the results for the IC50 with PQS (setting [1]) and in the assay on Pyocyanin (setting [2]) were less than 1 µM and 0.1 to 1 µM, respectively.

Consider `N#Cc1ccc2nc(SCC(=O)Nc3ccc(Cl)cc3)[nH]c2c1` [Compound 94], for which the results for the IC50 in the assay on PQS (setting [1]) and with Pyocyanin (setting [2]) were 1 to 5 µM and 0.1 to 1 µM, respectively.

`N#Cc1ccc(NC(=O)CSc2nc3cc(Br)ccc3[nH]2)cc1` [Compound 96]: the IC50 in the assay on PQS (setting [1]) is less than 1 µM; in the assay with Pyocyanin (setting [2]), less than 0.1 µM.

`N#Cc1ccc(NC(=O)CSc2nc3cc(OC(F)F)ccc3[nH]2)cc1` [Compound 104]: the IC50 with PQS (setting [1]) is 5 to 10 µM; with Pyocyanin (setting [2]), 0.1 to 1 µM.

As for `O=C(CSc1nc2cc(C(F)(F)F)ccc2[nH]1)Nc1ccc(Cl)cc1` [Compound 105], the results for the IC50 in the assay with PQS (setting [1]) and with Pyocyanin (setting [2]) were 1 to 5 µM and 0.1 to 1 µM, respectively.

Turning to `O=C(CSc1nc2cc(F)ccc2[nH]1)Nc1ccc(Cl)cc1` [Compound 110], the IC50 in the assay with PQS (setting [1]) was in the range of 5 to 10 µM; with Pyocyanin (setting [2]), 0.1 to 1 µM.

Regarding `O=C(CSc1nc2ccc(-n3cccn3)cc2[nH]1)Nc1ccc(Cl)cc1` [Compound 116], the IC50 with PQS (setting [1]) was greater than 10 µM; in the assay with Pyocyanin (setting [2]), 0.1 to 1 µM.

As to `N#Cc1ccc(NC(=O)CSc2nc3cc(Cl)ccc3[nH]2)cc1` [Compound 125], the IC50 with PQS (setting [1]) is less than 1 µM; with Pyocyanin (setting [2]) it was less than 0.1 µM.

For `O=C(CSc1nc2cc(F)c(F)cc2[nH]1)Nc1ccc(Br)cc1` [Compound 126], the IC50 is greater than 10 µM in the assay with PQS (setting [1]) and 0.1 to 1 µM in the assay with Pyocyanin (setting [2]).

For the molecule `O=C(CSc1nc2ccc(Cl)cc2[nH]1)Nc1ccc(Cl)cc1` [Compound 137], the values for the IC50 in the assay on PQS (setting [1]) and in the assay with Pyocyanin (setting [2]) were 1 to 5 µM and 0.1 to 1 µM, respectively.

On to `COc1ccc(NC(=O)CSc2nc3ccc(Cl)cc3[nH]2)cc1` [Compound 140], for which the concentration for half-maximal inhibition (IC50) with PQS (setting [1]) lay in the range of 5 to 10 µM; in the assay on Pyocyanin (setting [2]), 0.1 to 1 µM.

On to `N#Cc1ccc(NC(=O)CSc2nc3cc(Cl)ccc3[nH]2)cc1Cl` [Compound 142], for which the IC50 in the assay on PQS (setting [1]) was less than 1 µM; in the assay on Pyocyanin (setting [2]), 0.1 to 1 µM.

In the case of `O=C(CSc1nc2ccc(Br)cc2[nH]1)Nc1ccc(Cl)cc1` [Compound 145], the IC50 in the assay with PQS (setting [1]) is greater than 10 µM; in the assay with Pyocyanin (setting [2]) it was 0.1 to 1 µM.

For the molecule `N#Cc1ccc(NC(=O)CSc2nc3cc(Br)ccc3o2)cc1` [Compound 147], the IC50 was in the range of 1 to 5 µM with PQS (setting [1]) and 0.1 to 1 µM in the assay with Pyocyanin (setting [2]).

With `O=C(CCc1nc2ccc(Cl)cc2[nH]1)Nc1ccc(Oc2cccnc2)cc1` [Compound 152, 3-(5-chloro-1H-benzo[d]imidazol-2-yl)-N-(4-(pyridin-3-yloxy)phenyl)propanamide], the values for the IC50 in the assay with PQS (setting [1]) and with Pyocyanin (setting [2]) were 1 to 5 µM and 0.1 to 1 µM, respectively.
